Molecules are shown by their SMILES.

The target in the first assay is T1, 5-hydroxytryptamine receptor 2A (Homo sapiens, UniProt P28223). Nature of the assay: Functional antagonist activity of compound was determined by fluorescence-based assay measuring intracellular calcium mobilization for 5-HT2a receptor cell line. For orientation: Calcium assays in cells follow changes in intracellular calcium, usually with a dye or a luminescent sensor.
T1 sequence (P28223 whole entry): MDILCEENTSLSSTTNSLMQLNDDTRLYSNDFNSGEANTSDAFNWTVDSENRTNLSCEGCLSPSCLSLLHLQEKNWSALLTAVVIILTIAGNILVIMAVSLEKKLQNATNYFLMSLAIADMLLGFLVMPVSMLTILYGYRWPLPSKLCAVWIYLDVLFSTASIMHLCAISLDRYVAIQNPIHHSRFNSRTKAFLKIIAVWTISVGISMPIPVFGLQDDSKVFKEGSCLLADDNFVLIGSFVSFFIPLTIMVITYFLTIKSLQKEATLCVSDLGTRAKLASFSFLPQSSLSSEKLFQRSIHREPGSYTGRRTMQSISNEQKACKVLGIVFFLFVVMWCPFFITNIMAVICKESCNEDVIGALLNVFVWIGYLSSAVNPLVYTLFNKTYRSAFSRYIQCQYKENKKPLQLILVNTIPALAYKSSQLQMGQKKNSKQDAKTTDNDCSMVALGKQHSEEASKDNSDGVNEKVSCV
Broadly, the EC50 is the concentration giving half of the maximal effect. On to `CNCCc1cn2c3c(cc(F)cc13)CCC2C` (centres undefined), for which the EC50 worked out at 1.1 µM.

Test system in a further assay: not listed separately
Nature of the assay: Binding ratio of compound to 5-HT2a to that of 5-HT2c was determined.
For the compound `CNCCc1cn2c3c(cc(F)cc13)CCC2C` (centres undefined), the Ratio came out at 44.

For the compound `NCCc1cn2c3c(cccc13)CCC2`, the Ratio worked out at 19.4.

In the case of `CC1CCc2cc(F)cc3c(CCN)cn1c23` (centres undefined), the Ratio was 130.

Take `NCCc1cn2c3c(cc(Cl)cc13)SCC2`: the Ratio was 13.4.

Regarding `Cc1c(CCN)c2cccc3c2n1CCC3`, the Ratio was determined as 3.

Consider `Cc1c(CCN)c2cc(F)cc3c2n1C(C)CC3` (centres undefined), for which the Ratio came to 4.9.

The target of the next assay is T2, 5-hydroxytryptamine receptor 2C (Homo sapiens, UniProt P28335).
T2 sequence (P28335 whole entry): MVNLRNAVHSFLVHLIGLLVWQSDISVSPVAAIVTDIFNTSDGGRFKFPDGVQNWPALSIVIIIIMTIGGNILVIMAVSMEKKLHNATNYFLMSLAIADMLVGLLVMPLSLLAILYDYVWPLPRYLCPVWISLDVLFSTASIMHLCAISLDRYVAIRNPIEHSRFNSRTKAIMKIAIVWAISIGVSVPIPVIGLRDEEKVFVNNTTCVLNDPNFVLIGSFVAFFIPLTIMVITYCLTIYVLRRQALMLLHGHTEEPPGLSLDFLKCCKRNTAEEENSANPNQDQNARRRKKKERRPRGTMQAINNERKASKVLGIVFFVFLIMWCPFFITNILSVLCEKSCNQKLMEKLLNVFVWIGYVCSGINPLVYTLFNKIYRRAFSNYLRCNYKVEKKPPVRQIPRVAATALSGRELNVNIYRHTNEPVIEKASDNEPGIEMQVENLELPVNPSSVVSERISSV
Nature of the assay: Functional agonist activity of compound was determined by fluorescence-based assay measuring intracellular calcium mobilization for 5-HT2c receptor cell line.
In the case of `CNCCc1cn2c3c(cc(F)cc13)CCC2C` (centres undefined), the EC50 was determined as 0.18 µM.

With `NCCc1cn2c3c(cccc13)CCC2`, the EC50 is 0.0002 µM.

As for `CC1CCc2cc(F)cc3c(CCN)cn1c23` (centres undefined), the 50% effective concentration (EC50) was 0.0057 µM.

Take `NCCc1cn2c3c(cc(Cl)cc13)SCC2`: the EC50 stood at 0.00023 µM.

`Cc1c(CCN)c2cccc3c2n1CCC3`: the EC50 is 0.009 µM.

For the compound `Cc1c(CCN)c2cc(F)cc3c2n1C(C)CC3` (centres undefined), the EC50 was 0.041 µM.

In another assay the target is T2, 5-hydroxytryptamine receptor 2C. The experiment in a line: In vitro binding affinity towards human 5-hydroxytryptamine 2C receptor expressed in HEK293 cells was determined using [3H]mesulergine as radioligand. The format is cell-based.
Usually Ki stands for the dissociation constant of the complex between target and ligand, obtained from inhibition or displacement. The low end stands for tighter binding, the high end for weaker binding. `CNCCc1cn2c3c(cc(F)cc13)CCC2C` (centres undefined) returned a Ki of 0.033 µM.

Consider `NCCc1cn2c3c(cccc13)CCC2`, for which the Ki came out at 0.041 µM.

In the case of `CC1CCc2cc(F)cc3c(CCN)cn1c23` (centres undefined), the Ki is 0.018 µM.

`NCCc1cn2c3c(cc(Cl)cc13)SCC2` displayed a Ki of 0.047 µM.

In turn, `Cc1c(CCN)c2cccc3c2n1CCC3` displayed a Ki of 0.225 µM.

For `Cc1c(CCN)c2cc(F)cc3c2n1C(C)CC3` (centres undefined), the affinity corresponds to a Ki of 0.194 µM.

A further assay deals with T1, 5-hydroxytryptamine receptor 2A. The experiment in a line: In vitro binding affinity towards human 5-hydroxytryptamine 2A receptor expressed in HEK293 cells was determined using [3H]ketanserin as radioligand. The format is cell-based.
On to `CNCCc1cn2c3c(cc(F)cc13)CCC2C` (centres undefined), for which affinity was put at a Ki of 1.46 µM.

As to `NCCc1cn2c3c(cccc13)CCC2`, the Ki stood at 0.794 µM.

Regarding `CC1CCc2cc(F)cc3c(CCN)cn1c23` (centres undefined), the Ki is 2.34 µM.

For the compound `NCCc1cn2c3c(cc(Cl)cc13)SCC2`, the affinity corresponds to a Ki of 0.631 µM.

`Cc1c(CCN)c2cccc3c2n1CCC3` displayed a Ki of 0.676 µM.

The compound `Cc1c(CCN)c2cc(F)cc3c2n1C(C)CC3` (centres undefined) showed an inhibition constant Ki of 0.954 µM.

The target is the same in another assay. The experiment in a line: Functional agonist activity of compound was determined by fluorescence-based assay measuring intracellular calcium mobilization for 5-HT2a receptor cell line.
`CNCCc1cn2c3c(cc(F)cc13)CCC2C` (centres undefined): the EC50 is above 10 µM.

`NCCc1cn2c3c(cccc13)CCC2`: the EC50 was found to be 0.145 µM.

For `CC1CCc2cc(F)cc3c(CCN)cn1c23` (centres undefined), the EC50 worked out at 0.269 µM.

Consider `NCCc1cn2c3c(cc(Cl)cc13)SCC2`, for which the EC50 is 0.348 µM.

These data come from ChEMBL document CHEMBL1133355, “Pyrrolo[3,2,1-ij]quinoline derivatives, a 5-HT2c receptor agonist with selectivity over the 5-HT2a receptor: potential therapeutic applications for epilepsy and obesity” (Bioorg Med Chem Lett, 2000).
